Assay results from the supplement of paper PMC8617591.

Experiments:
[1] = test system: Mycobacterium tuberculosis Erdman (autoluminescent); experiment: total FIC50 (Loewe) at 50% inhibition, three-drug combination (log2); higher = more antagonistic
Protocol: (§1)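 DiaMOND equipotent three-drug combination dose responses (10 doses, 1.5- or 2-fold spacing, centred on IC90) against autoluminescent M. tuberculosis Erdman in 8 in vitro models. Read-out is OD600, or luminescence for the intracellular and dormancy models, normalised to untreated wells. Hill-fit Einf, AUC25 and GRinf are potency metrics; FIC50 and FIC90 are total Loewe fractional inhibitory concentrations as log2 (negative = synergy).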

[2] = test system: Mycobacterium tuberculosis Erdman (autoluminescent); experiment: total FIC90 (Loewe) at 90% inhibition, three-drug combination (log2); higher = more antagonistic
Protocol: as §1

[3] = test system: Mycobacterium tuberculosis Erdman (autoluminescent); experiment: AUC25, normalised area under dose response up to IC25 (three-drug combination) (fraction (0-1)); higher = more potent at low dose
Protocol: as §1

[4] = test system: Mycobacterium tuberculosis Erdman (autoluminescent); experiment: Einf, fitted maximum growth inhibition of three-drug combination (fraction); higher = stronger maximal inhibition
Protocol: as §1

[5] = test system: Mycobacterium tuberculosis Erdman (autoluminescent); experiment: GRinf, maximum normalised growth rate inhibition (three-drug combination) (unitless (-1 to 1)); higher = less effect (negative = killing)
Protocol: as §1

CC(C)/N=c1\cc2n(-c3ccc(Cl)cc3)c3ccccc3nc-2cc1Nc1ccc(Cl)cc1 [clofazimine] + NNC(=O)c1ccncc1 [isoniazid] + NC(=O)c1cnccn1 [pyrazinamide]
Details	AUC25, [3]	Einf, [4]	GRinf, [5]	total FIC50, [1]	total FIC90, [2]
in vitro model: acidic pH 5.7, time point: constant (~7 days, model-specific)	0.105	0.819	-0.294	0.25	–
in vitro model: acidic pH 5.7, time point: terminal (~4-5 doublings, model-specific)	0.0972	0.977	-0.35	-0.0265	-0.409
in vitro model: intracellular J774, time point: constant = terminal	–	0.964	-0.705	–	0.267

Details	AUC25, [3]	Einf, [4]	GRinf, [5]	total FIC50, [1]	total FIC90, [2]
in vitro model: butyrate, time point: constant (~7 days, model-specific)	0.112	0.953	-0.112	-0.201	0.915
in vitro model: butyrate, time point: terminal (~4-5 doublings, model-specific)	0.0804	0.968	-0.0686	-0.0738	0.168
in vitro model: cholesterol 0.05 mM, time point: constant (~7 days, model-specific)	0.131	0.74	-0.217	–	–
in vitro model: cholesterol 0.05 mM, time point: terminal (~4-5 doublings, model-specific)	0.132	0.924	-0.252	0.486	–
in vitro model: cholesterol-high 0.2 mM, time point: constant (~7 days, model-specific)	0.0931	0.938	-0.335	0.341	–
in vitro model: cholesterol-high 0.2 mM, time point: terminal (~4-5 doublings, model-specific)	0.0853	0.997	-0.517	0.634	0.384
in vitro model: dormancy (butyrate + nitrate, low O2), time point: constant (~7 days, model-specific)	0.0828	0.88	0.259	-0.675	-0.607
in vitro model: dormancy (butyrate + nitrate, low O2), time point: terminal (~4-5 doublings, model-specific)	0.0727	0.986	-0.174	-0.286	0.161
in vitro model: standard 7H9 glycerol, time point: constant = terminal	0.114	0.942	-0.135	0.447	–
in vitro model: valerate, time point: constant (~7 days, model-specific)	0.119	0.86	0.022	-0.0616	–
in vitro model: valerate, time point: terminal (~4-5 doublings, model-specific)	0.0674	0.933	0.0539	0.187	0.474

CC(C)/N=c1\cc2n(-c3ccc(Cl)cc3)c3ccccc3nc-2cc1Nc1ccc(Cl)cc1 [clofazimine] + NNC(=O)c1ccncc1 [isoniazid] + O=[N+]([O-])c1cn2c(n1)OC[C@@H](OCc1ccc(OC(F)(F)F)cc1)C2 [pretomanid]
Details	AUC25, [3]	Einf, [4]	GRinf, [5]	total FIC50, [1]	total FIC90, [2]
in vitro model: acidic pH 5.7, time point: constant (~7 days, model-specific)	0.0904	0.772	-0.0866	-0.103	–
in vitro model: acidic pH 5.7, time point: terminal (~4-5 doublings, model-specific)	0.0916	0.963	-0.274	0.278	0.567
in vitro model: intracellular J774, time point: constant = terminal	–	0.976	-0.35	–	0.28

Details	AUC25, [3]	Einf, [4]	GRinf, [5]	total FIC50, [1]	total FIC90, [2]
in vitro model: butyrate, time point: constant (~7 days, model-specific)	0.106	0.965	-0.205	0.629	1.4
in vitro model: butyrate, time point: terminal (~4-5 doublings, model-specific)	0.0874	0.989	-0.14	0.581	1.02
in vitro model: cholesterol 0.05 mM, time point: constant (~7 days, model-specific)	0.119	0.713	-0.0879	0.824	–
in vitro model: cholesterol 0.05 mM, time point: terminal (~4-5 doublings, model-specific)	0.0944	0.912	-0.156	7.01	0.912
in vitro model: cholesterol-high 0.2 mM, time point: constant (~7 days, model-specific)	0.102	0.971	-0.31	0.301	–
in vitro model: cholesterol-high 0.2 mM, time point: terminal (~4-5 doublings, model-specific)	0.0894	1	-0.709	0.306	0.374
in vitro model: dormancy (butyrate + nitrate, low O2), time point: constant (~7 days, model-specific)	0.0958	0.93	0.217	-0.236	-0.894
in vitro model: dormancy (butyrate + nitrate, low O2), time point: terminal (~4-5 doublings, model-specific)	0.0744	0.987	-0.177	-0.374	-0.0746
in vitro model: standard 7H9 glycerol, time point: constant = terminal	0.116	0.949	-0.229	0.139	0.594
in vitro model: valerate, time point: constant (~7 days, model-specific)	0.15	0.918	-0.199	0.901	2.23
in vitro model: valerate, time point: terminal (~4-5 doublings, model-specific)	0.0945	0.942	-0.0153	0.511	2.01
